Measurements published in patent publication US20230310428A1, “EGFR INHIBITOR AND PREPARATION METHOD AND USE THEREOF” (HONGYUN BIOTECH CO., LTD., priority 2020, published 2023).
Read-outs that look alike come from different tables or passages of the source.

Columns and labels:
Test in all cases: Growth inhibitory activity of compounds on BaF3 cell lines stably transfected with kinase (MTS, 48 h)
Assay type in all cases: cell-based
[1] = target: T1, various mutants of kinase EGFR (BaF3 cell lines stably transfected with kinase) (Homo sapiens, UniProt P00533, C797S/L858R/T790M)
T1 construct: expressed in transfected cells; host or cells: BaF3
Method in brief: (§1)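 BaF3 cells stably transfected with EGFR mutants were exposed for 48 h at 37°C to 8 compound concentrations (top 10 µM, 1/3 dilutions, 0.1% DMSO). Growth was read by MTS at 490 nm after 1-4 h, in duplicate; IC50 was derived from inhibition rates versus DMSO control.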

[2] = target: T2, various mutants of kinase EGFR (BaF3 cell lines stably transfected with kinase) (Homo sapiens, UniProt P00533, T790M, form not given)
T2 construct: other: BaF3 cells stably transfected with EGFR Δ19Del/T790M; MTS, 48 h; other: BaF3 cell line stably transfected with EGFR Δ19Del/T790M; MTS, 48
Method in brief: as §1

[3] = target: T3, various mutants of kinase EGFR (BaF3 cell lines stably transfected with kinase) (Homo sapiens, UniProt P00533, T790M/C797S, form not given)
T3 construct: other: BaF3 cells stably transfected with EGFR Δ19Del/T790M/C797S; MTS, 48; other: BaF3 cell line stably transfected with EGFR Δ19Del/T790M/C7
Method in brief: as §1

[4] = target: T4, various mutants of kinase EGFR (BaF3 cell lines stably transfected with kinase) (Homo sapiens, UniProt P00533, L858R)
T4 construct: expressed in transfected cells; host or cells: BaF3
Method in brief: as §1

[5] = target: T5, various mutants of kinase EGFR (BaF3 cell lines stably transfected with kinase) (Homo sapiens, UniProt P00533)
T5 construct: other: BaF3 cells stably transfected with EGFR Δ19Del; MTS, 48 h; other: BaF3 cell line stably transfected with EGFR Δ19Del
Method in brief: as §1

[6] = target: T6, various mutants of kinase EGFR (BaF3 cell lines stably transfected with kinase) (Homo sapiens, UniProt P00533, L858R/T790M)
T6 construct: expressed in transfected cells; host or cells: BaF3
Method in brief: as §1

[7] = BaF3 cells stably transfected with EGFR L858R/T790M/C797S, read-out: IC50, growth inhibition, L858R/T790M/C797S
[8] = BaF3 cells stably transfected with EGFR Δ19Del/T790M, read-out: IC50, growth inhibition, Δ19Del/T790M
[9] = BaF3 cells stably transfected with EGFR Δ19Del/T790M/C797S, read-out: IC50, growth inhibition, Δ19Del/T790M/C797S
[10] = BaF3 cells stably transfected with EGFR L858R, read-out: IC50, growth inhibition, L858R
[11] = BaF3 cells stably transfected with EGFR Δ19Del, read-out: IC50, growth inhibition, Δ19Del
[12] = BaF3 cells stably transfected with EGFR L858R/T790M, read-out: IC50, growth inhibition, L858R/T790M
[13] = BaF3 cell line stably transfected with EGFR L858R/T790M/C797S, read-out: L858R/T790M/ C797S growth inhibitory activity IC50
[14] = BaF3 cell line stably transfected with EGFR Δ19Del/T790M, read-out: Δ19Del/ T790M growth inhibitory activity IC50
[15] = BaF3 cell line stably transfected with EGFR Δ19Del/T790M/C797S, read-out: Δ19Del/T790M/ C797S growth inhibitory activity IC50
[16] = BaF3 cell line stably transfected with EGFR L858R, read-out: L858R growth inhibitory activity IC50
[17] = BaF3 cell line stably transfected with EGFR Δ19Del, read-out: Δ19Del growth inhibitory activity IC50
[18] = BaF3 cell line stably transfected with EGFR L858R/T790M, read-out: L858R/ T790M growth inhibitory activity IC50

T2 sequence (P00533 with tags, fused parts or gaps DEL746-750/T790M, form open): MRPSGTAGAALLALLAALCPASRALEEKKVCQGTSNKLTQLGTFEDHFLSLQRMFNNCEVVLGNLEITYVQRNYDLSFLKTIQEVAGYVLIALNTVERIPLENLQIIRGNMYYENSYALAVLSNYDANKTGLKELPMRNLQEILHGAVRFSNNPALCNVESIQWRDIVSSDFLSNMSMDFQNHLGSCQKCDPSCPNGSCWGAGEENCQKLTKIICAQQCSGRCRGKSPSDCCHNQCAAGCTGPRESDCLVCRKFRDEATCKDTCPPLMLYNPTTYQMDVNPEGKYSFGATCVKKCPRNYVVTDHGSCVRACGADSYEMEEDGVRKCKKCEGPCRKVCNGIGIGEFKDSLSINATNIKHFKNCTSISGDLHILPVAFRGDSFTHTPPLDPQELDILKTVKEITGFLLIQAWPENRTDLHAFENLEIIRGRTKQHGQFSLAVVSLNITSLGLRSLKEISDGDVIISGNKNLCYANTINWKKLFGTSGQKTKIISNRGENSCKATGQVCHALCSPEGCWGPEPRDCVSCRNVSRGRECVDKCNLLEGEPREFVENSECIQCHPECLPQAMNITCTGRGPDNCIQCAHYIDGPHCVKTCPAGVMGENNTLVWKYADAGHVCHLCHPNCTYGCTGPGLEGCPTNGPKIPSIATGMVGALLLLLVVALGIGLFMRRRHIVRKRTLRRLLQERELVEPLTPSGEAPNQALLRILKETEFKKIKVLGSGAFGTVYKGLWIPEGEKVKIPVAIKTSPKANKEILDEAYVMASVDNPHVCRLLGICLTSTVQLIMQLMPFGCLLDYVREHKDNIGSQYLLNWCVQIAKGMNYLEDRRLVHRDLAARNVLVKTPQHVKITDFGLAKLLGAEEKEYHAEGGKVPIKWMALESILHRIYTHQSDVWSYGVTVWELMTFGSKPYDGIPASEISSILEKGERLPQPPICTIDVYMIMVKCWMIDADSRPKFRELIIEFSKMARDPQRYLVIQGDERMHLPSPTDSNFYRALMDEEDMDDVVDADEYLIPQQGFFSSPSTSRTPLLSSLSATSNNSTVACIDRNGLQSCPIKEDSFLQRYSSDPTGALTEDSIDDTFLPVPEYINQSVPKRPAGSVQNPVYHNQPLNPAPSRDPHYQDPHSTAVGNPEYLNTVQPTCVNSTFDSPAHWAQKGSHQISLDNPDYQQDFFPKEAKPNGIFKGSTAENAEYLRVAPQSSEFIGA
T4 sequence (P00533 25-1210 L858R): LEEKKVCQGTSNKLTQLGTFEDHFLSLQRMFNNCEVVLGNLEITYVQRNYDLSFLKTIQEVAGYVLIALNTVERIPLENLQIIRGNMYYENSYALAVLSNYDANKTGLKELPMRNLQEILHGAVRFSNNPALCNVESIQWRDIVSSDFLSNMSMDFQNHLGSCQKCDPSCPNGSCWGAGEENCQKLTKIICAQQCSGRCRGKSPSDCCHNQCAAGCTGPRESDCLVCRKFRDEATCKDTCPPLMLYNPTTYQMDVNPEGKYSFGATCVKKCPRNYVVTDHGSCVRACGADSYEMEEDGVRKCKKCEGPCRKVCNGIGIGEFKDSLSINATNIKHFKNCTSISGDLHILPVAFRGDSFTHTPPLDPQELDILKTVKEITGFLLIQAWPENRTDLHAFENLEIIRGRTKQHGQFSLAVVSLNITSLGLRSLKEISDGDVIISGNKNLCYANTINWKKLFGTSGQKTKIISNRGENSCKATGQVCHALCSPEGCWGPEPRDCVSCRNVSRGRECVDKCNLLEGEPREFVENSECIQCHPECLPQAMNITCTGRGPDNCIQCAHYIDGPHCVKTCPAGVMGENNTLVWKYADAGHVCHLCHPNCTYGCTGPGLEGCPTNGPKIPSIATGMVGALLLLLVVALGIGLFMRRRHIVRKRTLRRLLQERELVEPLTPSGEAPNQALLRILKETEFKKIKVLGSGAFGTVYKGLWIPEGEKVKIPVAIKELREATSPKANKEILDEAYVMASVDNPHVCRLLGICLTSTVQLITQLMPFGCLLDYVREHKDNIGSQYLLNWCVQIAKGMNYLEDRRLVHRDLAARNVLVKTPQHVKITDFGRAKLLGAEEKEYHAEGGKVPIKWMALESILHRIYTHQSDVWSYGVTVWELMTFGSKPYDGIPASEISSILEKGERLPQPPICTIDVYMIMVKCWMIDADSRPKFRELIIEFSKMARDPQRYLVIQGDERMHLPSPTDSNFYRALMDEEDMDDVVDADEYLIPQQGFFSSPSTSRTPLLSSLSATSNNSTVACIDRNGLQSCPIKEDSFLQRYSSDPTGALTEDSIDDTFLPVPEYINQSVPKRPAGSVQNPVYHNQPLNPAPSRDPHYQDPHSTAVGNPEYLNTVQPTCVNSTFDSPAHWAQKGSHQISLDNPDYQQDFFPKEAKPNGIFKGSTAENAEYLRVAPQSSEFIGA
T6 sequence (P00533 25-1210 T790M/L858R): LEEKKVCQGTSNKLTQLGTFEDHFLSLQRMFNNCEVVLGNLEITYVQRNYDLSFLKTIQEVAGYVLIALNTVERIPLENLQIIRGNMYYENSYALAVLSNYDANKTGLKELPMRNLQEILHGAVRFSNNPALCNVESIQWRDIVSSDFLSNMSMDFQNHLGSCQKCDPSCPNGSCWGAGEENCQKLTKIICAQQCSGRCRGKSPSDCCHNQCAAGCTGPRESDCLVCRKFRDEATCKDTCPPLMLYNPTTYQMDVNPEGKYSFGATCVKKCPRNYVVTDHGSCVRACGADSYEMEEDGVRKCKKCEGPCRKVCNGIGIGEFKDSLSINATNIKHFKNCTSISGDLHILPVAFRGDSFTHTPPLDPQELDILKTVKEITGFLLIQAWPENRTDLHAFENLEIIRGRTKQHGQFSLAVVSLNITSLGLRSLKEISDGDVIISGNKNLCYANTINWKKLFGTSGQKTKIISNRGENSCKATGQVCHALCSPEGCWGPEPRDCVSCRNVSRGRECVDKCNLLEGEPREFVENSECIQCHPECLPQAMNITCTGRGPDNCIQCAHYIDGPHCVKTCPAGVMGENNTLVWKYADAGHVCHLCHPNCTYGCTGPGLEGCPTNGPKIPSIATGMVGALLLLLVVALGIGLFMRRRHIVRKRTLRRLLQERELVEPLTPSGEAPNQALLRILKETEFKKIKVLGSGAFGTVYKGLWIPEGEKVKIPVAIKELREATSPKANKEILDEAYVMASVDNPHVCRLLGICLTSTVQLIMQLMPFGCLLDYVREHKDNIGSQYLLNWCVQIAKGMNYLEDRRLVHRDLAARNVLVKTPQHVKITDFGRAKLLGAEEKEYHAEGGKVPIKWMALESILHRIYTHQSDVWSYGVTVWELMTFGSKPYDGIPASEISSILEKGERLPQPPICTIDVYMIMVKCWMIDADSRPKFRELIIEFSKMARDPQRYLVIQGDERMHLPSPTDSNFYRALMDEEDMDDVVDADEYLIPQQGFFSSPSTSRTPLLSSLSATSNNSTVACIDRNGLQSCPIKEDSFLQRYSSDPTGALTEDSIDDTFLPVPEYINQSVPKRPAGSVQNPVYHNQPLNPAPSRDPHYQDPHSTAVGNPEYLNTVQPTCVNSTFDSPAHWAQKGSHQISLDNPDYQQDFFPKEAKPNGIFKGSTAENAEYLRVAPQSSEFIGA
T1 sequence (P00533 25-1210 T790M/C797S/L858R): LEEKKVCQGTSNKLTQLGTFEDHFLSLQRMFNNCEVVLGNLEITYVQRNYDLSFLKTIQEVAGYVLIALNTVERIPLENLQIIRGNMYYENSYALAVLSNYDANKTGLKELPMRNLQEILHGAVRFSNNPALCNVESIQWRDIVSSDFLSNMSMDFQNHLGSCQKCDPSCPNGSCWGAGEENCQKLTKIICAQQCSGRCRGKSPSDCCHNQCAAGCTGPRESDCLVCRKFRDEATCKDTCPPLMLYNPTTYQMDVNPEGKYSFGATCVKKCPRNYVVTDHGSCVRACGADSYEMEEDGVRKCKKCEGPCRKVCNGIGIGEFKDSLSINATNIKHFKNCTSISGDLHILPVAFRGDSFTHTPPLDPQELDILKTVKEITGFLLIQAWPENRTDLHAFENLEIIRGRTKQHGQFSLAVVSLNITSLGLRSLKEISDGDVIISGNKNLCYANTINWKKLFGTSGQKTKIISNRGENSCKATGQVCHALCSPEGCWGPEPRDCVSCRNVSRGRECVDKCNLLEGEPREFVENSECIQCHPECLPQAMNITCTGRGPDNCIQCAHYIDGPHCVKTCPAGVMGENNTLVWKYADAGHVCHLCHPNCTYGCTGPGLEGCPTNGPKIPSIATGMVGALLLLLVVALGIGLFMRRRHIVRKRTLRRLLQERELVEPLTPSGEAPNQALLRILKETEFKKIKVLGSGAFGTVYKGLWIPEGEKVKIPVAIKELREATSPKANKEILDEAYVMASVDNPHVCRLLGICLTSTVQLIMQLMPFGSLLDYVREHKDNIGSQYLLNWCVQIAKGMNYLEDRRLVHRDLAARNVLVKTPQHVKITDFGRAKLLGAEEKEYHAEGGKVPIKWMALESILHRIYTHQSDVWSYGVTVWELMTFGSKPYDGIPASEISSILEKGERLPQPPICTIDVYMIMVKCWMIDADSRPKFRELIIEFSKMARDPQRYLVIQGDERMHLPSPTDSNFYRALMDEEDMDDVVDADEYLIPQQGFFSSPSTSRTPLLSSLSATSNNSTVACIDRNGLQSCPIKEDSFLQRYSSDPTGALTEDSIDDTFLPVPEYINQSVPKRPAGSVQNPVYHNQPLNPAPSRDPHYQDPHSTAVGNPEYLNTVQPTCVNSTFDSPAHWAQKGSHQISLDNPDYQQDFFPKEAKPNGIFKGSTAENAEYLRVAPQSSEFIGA

| Compound | IC50 [1, 7] | IC50 [2, 8] | IC50 [3, 9] | IC50 [4, 10] | IC50 [5, 11] | IC50 [6, 12] | IC50 [1, 13] | IC50 [2, 14] | IC50 [3, 15] | IC50 [4, 16] | IC50 [5, 17] | IC50 [6, 18] |
| --- | --- | --- | --- | --- | --- | --- | --- | --- | --- | --- | --- | --- |
| CCc1cc(Nc2ncc(Br)c(Nc3ccc4nccnc4c3N(C3CC3)S(C)(=O)=O)n2)c(OC)cc1N1CCC(N(C)C)C1 (stereo not drawn) [Compound I-158] | ≤ 50 nM | ≤ 50 nM | ≤ 50 nM | 50 to 500 nM | 50 to 500 nM | ≤ 50 nM | – | – | – | – | – | – |
| CCc1cc(Nc2ncc(F)c(Nc3ccc4nccnc4c3N(C)S(C)(=O)=O)n2)c(OC)nc1N1CCC(N2CCN(C)CC2)CC1 [Compound I-177] | ≤ 50 nM | ≤ 50 nM | ≤ 50 nM | ≤ 50 nM | ≤ 50 nM | ≤ 50 nM | – | – | – | – | – | – |
| CCc1cc(Nc2ncc(Cl)c(Nc3ccc4nccnc4c3N(C)S(=O)(=O)C3CC3)n2)c(OC(F)(F)F)cc1N1CCC(N2CCN(C)CC2)CC1 [Compound I-121] | 50 to 500 nM | 50 to 500 nM | 50 to 500 nM | 50 to 500 nM | 50 to 500 nM | 50 to 500 nM | – | – | – | – | – | – |
| CCN(c1c(Nc2nc(Nc3ccc(N4CCC(N5CCN(C)CC5)CC4)cc3OC)ncc2Cl)ccc2nccnc12)S(C)(=O)=O [Compound I-224] | ≤ 50 nM | 50 to 500 nM | ≤ 50 nM | 50 to 500 nM | 50 to 500 nM | ≤ 50 nM | – | – | – | – | – | – |
| CN(c1c(Nc2nc(Nc3cccc(N4CCC(N5CCCC5)CC4)c3)ncc2Br)ccc2nccnc12)S(C)(=O)=O [Compound I-381] | – | – | – | – | – | – | ≤ 50 nM | ≤ 50 nM | 50 to 500 nM | 50 to 500 nM | 50 to 500 nM | ≤ 50 nM |
| COc1cc(N2CCC(N3CCN(C)CC3)CC2)ccc1Nc1ncc(F)c(Nc2ccc3nccnc3c2N(C)S(C)(=O)=O)n1 [Compound I-24] | 50 to 500 nM | 50 to 500 nM | 50 to 500 nM | 50 to 500 nM | 50 to 500 nM | 50 to 500 nM | – | – | – | – | – | – |
| COc1ccc(N2CCC(O)CC2)cc1Nc1ncc(C)c(Nc2ccc3nccnc3c2N(C)S(C)(=O)=O)n1 [Compound I-362] | – | – | – | – | – | – | ≤ 50 nM | 50 to 500 nM | ≤ 50 nM | ≤ 50 nM | 50 to 500 nM | 50 to 500 nM |
| COc1ccc(N2CCC(O)CC2)cc1Nc1ncc(OC)c(Nc2ccc3nccnc3c2N(C)S(C)(=O)=O)n1 [Compound I-366] | – | – | – | – | – | – | ≤ 50 nM | 50 to 500 nM | ≤ 50 nM | 50 to 500 nM | 50 to 500 nM | ≤ 50 nM |
| COc1cc(N2CCC(N3CCN(C)CC3)CC2)ccc1Nc1ncc(F)c(Nc2ccc3nccnc3c2N(C)S(=O)(=O)C2CC2)n1 [Compound I-247] | 500 to 2500 nM | 500 to 2500 nM | 50 to 500 nM | 50 to 500 nM | 50 to 500 nM | 500 to 2500 nM | – | – | – | – | – | – |
| CCc1cc(Nc2ncc(C)c(Nc3ccc4nccnc4c3N(C)S(C)(=O)=O)n2)c(OC)cc1N1CCC(N(C)C)C1 (stereo not drawn) [Compound I-280] | ≤ 50 nM | ≤ 50 nM | ≤ 50 nM | ≤ 50 nM | ≤ 50 nM | ≤ 50 nM | – | – | – | – | – | – |
| COc1cc(N2CCC(N3CCN(C)CC3)CC2)c(CC2CC2)cc1Nc1ncc(F)c(Nc2ccc3nccnc3c2N(C)S(=O)(=O)C2CC2)n1 [Compound I-251] | 500 to 2500 nM | 500 to 2500 nM | 50 to 500 nM | 50 to 500 nM | 50 to 500 nM | 50 to 500 nM | – | – | – | – | – | – |
| CCc1cc(Nc2ncc(C)c(Nc3ccc4nccnc4c3N(C)S(C)(=O)=O)n2)c(OC)nc1N1CCC(N2CCN(C)CC2)CC1 [Compound I-278] | ≤ 50 nM | ≤ 50 nM | ≤ 50 nM | ≤ 50 nM | ≤ 50 nM | ≤ 50 nM | – | – | – | – | – | – |
| COc1cc(N2CCC(N(C)C)CC2)c(C)cc1Nc1ncc(Br)c(Nc2ccc3nccnc3c2N(C)S(=O)(=O)C2CC2)n1 [Compound I-221] | ≤ 50 nM | ≤ 50 nM | ≤ 50 nM | 50 to 500 nM | 50 to 500 nM | ≤ 50 nM | – | – | – | – | – | – |
| CCc1cc(Nc2ncc(Br)c(Nc3ccc4nccnc4c3N(CC)S(C)(=O)=O)n2)c(OC)cc1N1CCC(N(C)C)CC1 [Compound I-97] | ≤ 50 nM | ≤ 50 nM | ≤ 50 nM | ≤ 50 nM | ≤ 50 nM | ≤ 50 nM | – | – | – | – | – | – |
| CCc1cc(Nc2ncc(Br)c(Nc3ccc4nccnc4c3N(C)S(C)(=O)=O)n2)c(OC)cc1N1CCC(N2CCN(C)CC2)CC1 [Compound I-396] | – | – | – | – | – | – | ≤ 50 nM | 50 to 500 nM | ≤ 50 nM | 50 to 500 nM | 50 to 500 nM | 50 to 500 nM |
| COc1cc(N2CCC(N3CCN(C)CC3)CC2)c(CC2CC2)cc1Nc1ncc(F)c(Nc2ccc3nccnc3c2N(C)S(C)(=O)=O)n1 [Compound I-181] | 50 to 500 nM | 50 to 500 nM | ≤ 50 nM | ≤ 50 nM | ≤ 50 nM | ≤ 50 nM | – | – | – | – | – | – |
| C=Cc1cc(Nc2ncc(Br)c(Nc3ccc4nccnc4c3N(CC)S(C)(=O)=O)n2)c(OC(F)(F)F)cc1N1CCC(N2CCN(C)CC2)CC1 [Compound I-298] | ≤ 50 nM | ≤ 50 nM | ≤ 50 nM | 50 to 500 nM | 50 to 500 nM | 50 to 500 nM | – | – | – | – | – | – |
| COc1cc(N2CCC(N3CCN(C)CC3)CC2)c(Cc2ccccc2)cc1Nc1ncc(Br)c(Nc2ccc3nccnc3c2N(C)S(C)(=O)=O)n1 [Compound I-11] | 500 to 2500 nM | 500 to 2500 nM | 500 to 2500 nM | 50 to 500 nM | 500 to 2500 nM | 500 to 2500 nM | – | – | – | – | – | – |
| CCc1cc(Nc2ncc(Br)c(Nc3ccc4nccnc4c3N(C3CC3)S(C)(=O)=O)n2)c(OC)cc1N1CCC(N2CCN(C)CC2)CC1 [Compound I-155] | ≤ 50 nM | ≤ 50 nM | ≤ 50 nM | ≤ 50 nM | 50 to 500 nM | ≤ 50 nM | – | – | – | – | – | – |
| COc1cc(N2CCC(N3CCN(C)CC3)CC2)c(CC2CC2)cc1Nc1ncc(Cl)c(Nc2ccc3nccnc3c2N(C)S(C)(=O)=O)n1 [Compound I-167] | ≤ 50 nM | ≤ 50 nM | ≤ 50 nM | ≤ 50 nM | 50 to 500 nM | ≤ 50 nM | – | – | – | – | – | – |
| CN1CCN(C2CCN(c3ccc(Nc4nc(Nc5ccc6nccnc6c5N(C)S(C)(=O)=O)c5[nH]ccc5n4)c(OC(F)(F)F)c3)CC2)CC1 [II-1-29] | – | – | – | – | – | – | 500 to 2500 nM | 500 to 2500 nM | 50 to 500 nM | 500 to 2500 nM | 500 to 2500 nM | 500 to 2500 nM |
| CCc1cc(Nc2ncc(Br)c(Nc3ccc4nccnc4c3N(C)S(=O)(=O)C3CC3)n2)c(OC)cc1N1CCC(N(C)C)C1 (stereo not drawn) [Compound I-108] | ≤ 50 nM | ≤ 50 nM | ≤ 50 nM | 50 to 500 nM | 50 to 500 nM | ≤ 50 nM | – | – | – | – | – | – |
| COc1cc(N2CCC(N3CCN(C)CC3)CC2)ccc1Nc1ncc(Cl)c(Nc2ccc3nccnc3c2N(C)S(=O)(=O)C(F)(F)F)n1 [Compound I-261] | 50 to 500 nM | 50 to 500 nM | 50 to 500 nM | 500 to 2500 nM | 500 to 2500 nM | 50 to 500 nM | – | – | – | – | – | – |
| CCc1cc(Nc2ncc(Cl)c(Nc3ccc4nccnc4c3N(C)S(C)(=O)=O)n2)ccc1N1CCC(N2CCN(C)CC2)CC1 [Compound I-289] | ≤ 50 nM | ≤ 50 nM | ≤ 50 nM | ≤ 50 nM | ≤ 50 nM | ≤ 50 nM | – | – | – | – | – | – |
| CCc1cc(Nc2ncc(C(F)(F)F)c(Nc3ccc4nccnc4c3N(C)S(C)(=O)=O)n2)c(OC)cc1N1CCN(C)CC1 [Compound I-208] | ≤ 50 nM | ≤ 50 nM | ≤ 50 nM | ≤ 50 nM | 50 to 500 nM | ≤ 50 nM | – | – | – | – | – | – |
